The target of this experiment is T1, recombinant maize (Zea mays) CK2 a-subunit (Biaffin) (Zea mays, UniProt P28523).
T1 construct: gene ACK2; commercial recombinant catalytic alpha subunit (Biaffin)
In words: in vitro kinase assay, SDS-PAGE and phosphorimager. It counts as biochemical. Particulars: protein substrate recombinant AtSOUL4 (3 µg); 25 mM Tris-HCl pH 8.0, 5 mM MgCl2, 1 mM DTT, 25 °C, 30 min; labelled compound; mere turnover.

T1 sequence (P28523 whole entry): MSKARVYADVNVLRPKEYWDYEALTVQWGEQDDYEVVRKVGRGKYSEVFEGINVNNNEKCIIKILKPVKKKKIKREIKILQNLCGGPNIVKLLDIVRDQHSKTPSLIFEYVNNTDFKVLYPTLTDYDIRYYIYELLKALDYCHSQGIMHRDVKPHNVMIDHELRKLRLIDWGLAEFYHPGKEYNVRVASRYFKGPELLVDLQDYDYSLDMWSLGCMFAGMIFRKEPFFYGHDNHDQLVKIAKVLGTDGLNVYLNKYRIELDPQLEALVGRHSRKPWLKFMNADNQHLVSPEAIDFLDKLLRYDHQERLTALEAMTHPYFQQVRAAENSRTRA

Consider `Nc1ncnc2c1ncn2[C@@H]1O[C@H](COP(=O)(O)OP(=O)(O)OP(=O)(O)O)[C@@H](O)[C@H]1O` [ATP], for which the “in vitro kinase assay, SDS-PAGE and phosphorimager” value is “revealing phosphorylation of SOUL4 both by recombinant maize CKII and stromal fraction”.

These data come from article PMC7006542, “Characterization of a Plastoglobule-Localized SOUL4 Heme-Binding Protein in Arabidopsis thaliana” (Frontiers in Plant Science, 2020).
